Measurements taken from patent publication US9951149B2, “Reversible heparin molecules and methods of making and using the same” (The University of North Carolina at Chapel Hill, priority 2013, dated 2018).

target: T1, Stabilin-2 receptor (190-HARE) (Homo sapiens, UniProt Q8WWQ8); assay: Stabilin-2 mediated endocytosis of 35S-labeled LMWHs in Flp-In-293 cells; format: cell-based; details: Flp-In-293 cells expressing 190-HARE, 3 h at 37° C. (FIG. 5)
T1 construct: The Stabilin-2 cell line expressing the 190-HARE; expressed in transfected cells
T1 sequence (Q8WWQ8 1136-2551 limits assumed): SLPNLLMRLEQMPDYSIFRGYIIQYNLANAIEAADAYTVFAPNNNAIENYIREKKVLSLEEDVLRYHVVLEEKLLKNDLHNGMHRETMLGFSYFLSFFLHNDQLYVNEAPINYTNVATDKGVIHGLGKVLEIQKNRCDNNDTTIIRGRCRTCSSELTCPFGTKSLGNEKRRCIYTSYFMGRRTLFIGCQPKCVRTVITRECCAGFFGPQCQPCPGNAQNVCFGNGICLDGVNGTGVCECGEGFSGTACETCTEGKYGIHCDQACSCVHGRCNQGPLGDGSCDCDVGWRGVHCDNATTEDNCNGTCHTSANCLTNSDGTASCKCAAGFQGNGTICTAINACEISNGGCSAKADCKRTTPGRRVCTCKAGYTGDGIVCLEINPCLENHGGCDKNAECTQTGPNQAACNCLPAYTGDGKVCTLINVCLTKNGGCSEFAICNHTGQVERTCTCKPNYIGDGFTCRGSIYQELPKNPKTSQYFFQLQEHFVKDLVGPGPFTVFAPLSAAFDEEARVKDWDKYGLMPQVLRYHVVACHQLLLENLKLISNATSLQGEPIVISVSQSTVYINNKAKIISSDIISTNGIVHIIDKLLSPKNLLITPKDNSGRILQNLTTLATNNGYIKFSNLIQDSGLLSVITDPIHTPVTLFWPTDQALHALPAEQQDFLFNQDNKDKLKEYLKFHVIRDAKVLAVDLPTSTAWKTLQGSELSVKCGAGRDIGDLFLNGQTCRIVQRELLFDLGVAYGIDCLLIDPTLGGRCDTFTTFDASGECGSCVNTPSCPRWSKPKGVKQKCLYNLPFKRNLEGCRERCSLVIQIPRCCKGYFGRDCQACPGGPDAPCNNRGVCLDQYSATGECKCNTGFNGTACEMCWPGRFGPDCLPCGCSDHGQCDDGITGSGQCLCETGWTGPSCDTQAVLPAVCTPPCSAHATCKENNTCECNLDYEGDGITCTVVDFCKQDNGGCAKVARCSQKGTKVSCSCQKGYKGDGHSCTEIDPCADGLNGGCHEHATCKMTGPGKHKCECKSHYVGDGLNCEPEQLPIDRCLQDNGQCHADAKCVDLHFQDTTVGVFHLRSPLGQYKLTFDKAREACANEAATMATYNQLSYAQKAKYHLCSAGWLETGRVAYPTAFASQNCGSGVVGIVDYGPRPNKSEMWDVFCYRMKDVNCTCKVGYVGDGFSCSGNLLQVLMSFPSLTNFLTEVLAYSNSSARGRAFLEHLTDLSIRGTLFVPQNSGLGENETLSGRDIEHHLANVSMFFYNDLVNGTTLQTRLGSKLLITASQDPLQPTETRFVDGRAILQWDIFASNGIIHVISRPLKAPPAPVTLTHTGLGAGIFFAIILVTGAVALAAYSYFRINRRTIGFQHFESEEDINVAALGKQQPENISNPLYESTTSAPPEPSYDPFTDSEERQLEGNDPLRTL
Experimental: FIG. 5 is a histogram of endocytosis of ^35S-labeled synthetic LMWHs in Flp-In-293 cells. The cells were stably transfected with the plasmid expressing the Stabilin-2 receptor (190-HARE). The internalization value was calculated by subtracting the nonspecific internalization background from the total internalization of a ^35S-labeled Compound. The background was determined by mixing the ^35S-labeled Compound with at least 100-fold molecular excess of unlabeled UFH.
The Stabilin-2 cell line expressing the 190-HARE (Harris et al., J. Biol. Chem. 279, 36201-36209, 2004) was grown to 90% confluency with DMEM+8% FBS+50 μgml^−1 Hygromycin B in 24-well plates for at least 2 days prior to the experiment in a standard tissue culture incubator. Endocytosis medium (DMEM+0.05% BSA) containing a known amount of ^35S-labeled LMWH Compound, LOVENOX®, or UFH was added to each well in triplicate and allowed to incubate with the cells for 3 h at 37° C., 5% CO2. Receptor specific internalization was assessed by incubating each radiolabeled ligand with at least a 100-fold excess of unlabeled UFH. The cells were then washed with Hank's Balanced Salt Solution (1.26 mM CaCl2, 5.33 mM KCl, 0.44 mM KH2PO4, 0.5 mM MgCl2-6H2O, 0.41 mM MgSO4-7H2O, 138 mM NaCl, 4.0 mM NaHCO3, […], 0.3 mM phenol red, pH 7.2) three-times, and cells were lysed in 0.4 ml 0.3 N NaOH. 0.35 ml of the cell lysate mixture was mixed with 4 ml scintillation fluid (Perkin Elmer, Waltham, Mass., United States of America) and radioactivity was measured by a Beckman Coulter LS6500 scintillation counter. The remaining 0.05 ml cell lysate was used to determine protein levels using the Bradford reagent (Sigma-Aldrich). The data was calculated as the percentage of specific CPM internalized of the total amount added per μg cell lysate protein±standard deviation.

**Q.** Which “endocytosis mediated by Stabilin-2 (internalization)” value (from here on “endocytosis mediated”) does the source give for `O=C(O)C1OC(OC2C(COS(=O)(=O)O)OC(OC3C(C(=O)O)OC(OC4C(COS(=O)(=O)O)OC(OC5C(C(=O)O)OC(OC6C(COS(=O)(=O)O)OC(OC7C(C(=O)O)OC(Oc8ccc([N+](=O)[O-])cc8)C(O)C7O)C(NS(=O)(=O)O)C6O)C(OS(=O)(=O)O)C5O)C(NS(=O)(=O)O)C4O)C(OS(=O)(=O)O)C3O)C(NS(=O)(=O)O)C2OS(=O)(=O)O)C(O)C(O)C1OC1OC(COS(=O)(=O)O)C(O)C(O)C1NS(=O)(=O)O` (stereo not drawn) [Compound 2] here?
**A.** Its value is “very low internalization”.

**Q.** For `CC(=O)NC1C(OC2C(C(=O)O)OC(OC3C(COS(=O)(=O)O)OC(OC4C(C(=O)O)OC(OC5C(COS(=O)(=O)O)OC(OC6C(C(=O)O)OC(OC7C(COS(=O)(=O)O)OC(OC8C(C(=O)O)OC(OC9C(COS(=O)(=O)O)OC(OC%10C(C(=O)O)OC(OC%11C(COS(=O)(=O)O)OC(OC%12C(C(=O)O)OC(Oc%13ccc([N+](=O)[O-])cc%13)C(O)C%12O)C(NS(=O)(=O)O)C%11O)C(OS(=O)(=O)O)C%10O)C(NS(=O)(=O)O)C9OS(=O)(=O)O)C(OS(=O)(=O)O)C8O)C(NS(=O)(=O)O)C7O)C(OS(=O)(=O)O)C6O)C(NS(=O)(=O)O)C5O)C(OS(=O)(=O)O)C4O)C(NS(=O)(=O)O)C3OS(=O)(=O)O)C(O)C2O)OC(COS(=O)(=O)O)C(O)C1O` (stereo not drawn) [Compound 5], which “endocytosis mediated” value is on record?
**A.** The value was “significant endocytosis”.

**Q.** How did the “endocytosis mediated” value turn out when `O=C(O)C1OC(OC2C(COS(=O)(=O)O)OC(OC3C(C(=O)O)OC(OC4C(COS(=O)(=O)O)OC(OC5C(C(=O)O)OC(OC6C(COS(=O)(=O)O)OC(OC7C(C(=O)O)OC(OC8C(COS(=O)(=O)O)OC(OC9C(C(=O)O)OC(Oc%10ccc([N+](=O)[O-])cc%10)C(O)C9O)C(NS(=O)(=O)O)C8O)C(OS(=O)(=O)O)C7O)C(NS(=O)(=O)O)C6O)C(OS(=O)(=O)O)C5O)C(NS(=O)(=O)O)C4O)C(OS(=O)(=O)O)C3O)C(NS(=O)(=O)O)C2OS(=O)(=O)O)C(O)C(O)C1OC1OC(COS(=O)(=O)O)C(O)C(O)C1NS(=O)(=O)O` (stereo not drawn) [Compound 3] was run?
**A.** Its value is “significant endocytosis”.

**Q.** How did the “endocytosis mediated” value turn out when `CC(=O)NC1C(OC2C(C(=O)O)OC(OC3C(COS(=O)(=O)O)OC(OC4C(C(=O)O)OC(OC5C(COS(=O)(=O)O)OC(OC6C(C(=O)O)OC(OC7C(COS(=O)(=O)O)OC(OC8C(C(=O)O)OC(OC9C(COS(=O)(=O)O)OC(OC%10C(C(=O)O)OC(OC%11C(COS(=O)(=O)O)OC(OC%12C(C(=O)O)OC(Oc%13ccc([N+](=O)[O-])cc%13)C(O)C%12O)C(NS(=O)(=O)O)C%11O)C(OS(=O)(=O)O)C%10O)C(NS(=O)(=O)O)C9O)C(OS(=O)(=O)O)C8O)C(NS(=O)(=O)O)C7O)C(OS(=O)(=O)O)C6O)C(NS(=O)(=O)O)C5O)C(OS(=O)(=O)O)C4O)C(NS(=O)(=O)O)C3OS(=O)(=O)O)C(O)C2O)OC(COS(=O)(=O)O)C(O)C1O` (stereo not drawn) [Compound 4] was run?
**A.** Its value is “significant endocytosis”.

**Q.** Which “endocytosis mediated” value does the source give for `O=C(O)C1OC(OC2C(COS(=O)(=O)O)OC(OC3C(C(=O)O)OC(OC4C(COS(=O)(=O)O)OC(OC5C(C(=O)O)OC(Oc6ccc([N+](=O)[O-])cc6)C(O)C5O)C(NS(=O)(=O)O)C4O)C(OS(=O)(=O)O)C3O)C(NS(=O)(=O)O)C2OS(=O)(=O)O)C(O)C(O)C1OC1OC(COS(=O)(=O)O)C(O)C(O)C1NS(=O)(=O)O` (stereo not drawn) [Compound 1] here?
**A.** Its value is “very low internalization”.

test system: human factor Xa; assay: Neutralization of LMWHs by protamine in mice, ex vivo anti-Xa activity in mouse plasma; details: C57BL/6J mice, s.c. test compound, protamine 15 mgkg^−1 i.v. 30 min later, plasma 5 min later (FIG. 4C)
Experimental: The study was performed on eight week old male C57BL/6J mice (Jackson Laboratories, Bar Harbor, Me., United States of America) (n=4 per group). The mouse experiments were approved by the UNC Animal Care and Use Committees and complied with National Institutes of Health guidelines. Under isoflurane anesthesia, mice were subcutaneously administered with PBS, UFH (3 mgkg^−1), LOVENOX® (3 mgkg^−1) or Compound 5 (0.6 mgkg^−1) 30 min prior to a protamine administration. […] To obtain mouse plasma, blood samples were centrifuged at 4,000 g for 15 min at 4° C. Mouse plasma was then used to determine anti-Xa activity. Ex vivo analysis of anti-Xa activity was done similar to the in vitro study described above. Briefly, plasma (10 μl) from different groups of mice was incubated with 80 nM human factor Xa (10 μl) at room temperature for 4 minutes and S-2765 (1 mgml^−1, 30 μl) was then added. The anti-Xa activity in the mouse plasma from the PBS injected mice was defined as 100%. Statistical analysis for multiple comparisons was performed by two-way ANOVA with Bonferroni's post-hoc test (GraphPad Prism Software, La Jolla, Calif., United States of America).

**Q.** How did the “ex vivo reversibility of anti-FXa activity by protamine” value turn out when `CC(=O)NC1C(OC2C(C(=O)O)OC(OC3C(COS(=O)(=O)O)OC(OC4C(C(=O)O)OC(OC5C(COS(=O)(=O)O)OC(OC6C(C(=O)O)OC(OC7C(COS(=O)(=O)O)OC(OC8C(C(=O)O)OC(OC9C(COS(=O)(=O)O)OC(OC%10C(C(=O)O)OC(OC%11C(COS(=O)(=O)O)OC(OC%12C(C(=O)O)OC(Oc%13ccc([N+](=O)[O-])cc%13)C(O)C%12O)C(NS(=O)(=O)O)C%11O)C(OS(=O)(=O)O)C%10O)C(NS(=O)(=O)O)C9OS(=O)(=O)O)C(OS(=O)(=O)O)C8O)C(NS(=O)(=O)O)C7O)C(OS(=O)(=O)O)C6O)C(NS(=O)(=O)O)C5O)C(OS(=O)(=O)O)C4O)C(NS(=O)(=O)O)C3OS(=O)(=O)O)C(O)C2O)OC(COS(=O)(=O)O)C(O)C1O` (stereo not drawn) [Compound 5] was run?
**A.** Its value is “reversible”.
